# Data from PMC5863496, “Mesobuthus Venom-Derived Antimicrobial Peptides Possess Intrinsic Multifunctionality and Differential Potential as Drugs” (Frontiers in Microbiology, 2018).
# Ends that are not written are not given here.
# Legend:
# [1] = test system: fresh erythrocytes from the ICR mice; assay: Hemolytic assay, mouse erythrocytes; format: cell-based; details: mouse blood cells, 30 min, 37°C, A570
# Procedure: (§1) Hemolytic activity of peptides against fresh erythrocytes from the ICR mice (Mus musculus), the lizards (Eremias multiocellata) or the pigeons (Columba livia domestica) was assayed according to the standard method (Zhu et al., [2012a]). An aliquot of freshly prepared venom was diluted with 0.9% NaCl to a protein concentration of ~5 mg/mL for use. The percentage of hemolysis is determined as (Apep-Ablank)/(Atot-Ablank) × 100, in which “A” represents absorbance measured at 570 nm. Ablank and Aprep were evaluated in the absence or presence of the venom or peptides. 100% hemolysis (Atot) was obtained in the presence of 1% Triton X-100.
# Serum stability = format: in vitro ADME; details: fresh mouse serum, 37°C, read-out inhibition zone on Micrococcus luteus plates, triplicate
# Procedure: To assess serum stability, peptides were dissolved in H2O or fresh mouse serum for the indicated times at 37°C and their residual activity was measured by the inhibition-zone assay (Hultmark, [1998]).
# Escherichia coli JM109 = assay: Inhibition-zone assay (CL); format: cell-based; details: EC JM109, N.A. = no activity at 0.8 nmol peptide each well
# Method in brief: (§2)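 Bacteria (~2 × 10^6 cells/ml) were seeded in 0.8% soft-agar medium (LB, Nutrient Broth or GYM) and grown at 30 or 37°C. Three peptide doses were placed in separate 2 mm wells, and inhibition zones were measured after overnight incubation. CL was calculated from the slope and intercept of a d^2 versus log n plot.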
# Escherichia coli DH5α = assay: Inhibition-zone assay (CL); format: cell-based; details: EC DH5α, N.A. = no activity at 0.8 nmol peptide each well
# Method in brief: as §2
# [2] = test system: Pseudomonas aeruginosa 374; assay: Inhibition-zone assay (CL); format: cell-based; details: PA 374, N.A. = no activity at 0.8 nmol peptide each well
# Method in brief: as §2
# [3] = test system: Pseudomonas aeruginosa O1; assay: Inhibition-zone assay (CL); format: cell-based; details: PA O1, N.A. = no activity at 0.8 nmol peptide each well
# Method in brief: as §2
# [4] = test system: Pseudomonas aeruginosa FRD1; assay: Inhibition-zone assay (CL); format: cell-based; details: PA FRD1, N.A. = no activity at 0.8 nmol peptide each well
# Method in brief: as §2
# [5] = test system: Serratia marcescens ATCC 14041; assay: Inhibition-zone assay (CL); format: cell-based; details: SMAR ATCC 14041, N.A. = no activity at 0.8 nmol peptide each well
# Method in brief: as §2
# Candida albicans 4277 = assay: Inhibition-zone assay (CL); format: cell-based; details: CA 4277, 28°C, N.A. = no activity at 0.8 nmol peptide each well
# Candida albicans JX1009 = assay: Inhibition-zone assay (CL); format: cell-based; details: CA JX1009, 28°C, N.A. = no activity at 0.8 nmol peptide each well
# Aspergillus nidulans A28 = assay: Inhibition-zone assay (CL); format: cell-based; details: ANID A28, 28°C, N.A. = no activity at 0.8 nmol peptide each well
# Pichia pastoris X33 = assay: Inhibition-zone assay (CL); format: cell-based; details: PP X33, 28°C, N.A. = no activity at 0.8 nmol peptide each well
# [6] = test system: fresh erythrocytes from the pigeons; assay: Hemolytic assay, bird (pigeon) erythrocytes; format: cell-based, Columba livia domestica; details: peptide 25 μM; bird blood cells; 30 min, 37°C
# Procedure: as §1
# Candida albicans JX1195 = assay: Inhibition-zone assay (CL); format: cell-based; details: CA JX1195, 28°C, N.A. = no activity at 0.8 nmol peptide each well
# [7] = test system: Aspergillus nidulans Rcho15; assay: Inhibition-zone assay (CL); format: cell-based; details: ANID Rcho15, 28°C, N.A. = no activity at 0.8 nmol peptide each well
# [8] = peptide 3.125 μM, mean ± S.D., triplicate
molecule,measurement,setting,value
"CC[C@H](C)[C@H](NC(=O)CN)C(=O)NCC(=O)N[C@@H](C)C(=O)N[C@H](C(=O)N[C@@H](CC(C)C)C(=O)N[C@@H](CCCCN)C(=O)N[C@H](C(=O)N[C@@H](CC(C)C)C(=O)N[C@H](C(=O)N[C@H](C(=O)NCC(=O)N[C@@H](CC(C)C)C(=O)N1CCC[C@H]1C(=O)N[C@@H](C)C(=O)N[C@@H](CC(C)C)C(=O)N[C@H](C(=O)N[C@@H](CO)C(=O)N[C@@H](Cc1c[nH]c2ccccc12)C(=O)N[C@H](C(=O)N[C@@H](CCCCN)C(=O)N[C@@H](CCCNC(=N)N)C(=O)N[C@@H](CCCCN)C(=O)N[C@@H](CCCNC(=N)N)C(=O)N[C@@H](CCC(N)=O)C(=O)N[C@@H](CCC(N)=O)C(N)=O)[C@@H](C)CC)[C@@H](C)CC)[C@@H](C)O)[C@@H](C)O)C(C)C)C(C)C [Melittin, reference compound]",hemolysis,[1]; [8],complete hemolysis
same,residual activity after incubation in mouse serum,"Serum stability; 24 h, 0.72-1.44 nmol each well",only little or no activity remained
same,Lethal concentration (CL),Escherichia coli JM109,23.53 µM
same,Lethal concentration (CL),Escherichia coli DH5α,18.20 µM
FFGHLFKLATKIIPSFFRRKNQ [MAC-22],Lethal concentration (CL),Pseudomonas solanacearum,22.08 µM
same,Lethal concentration (CL),[2],18.75 µM
same,Lethal concentration (CL),[3],12.03 µM
same,Lethal concentration (CL),[4],18.75 µM
"FFGHLFKLATKIIPSLFQ [MUC-18, reference compound]",Lethal concentration (CL),[3],41.58 µM
FFGHLFKLATKIIPSLFQRKKE [MUC-22],Lethal concentration (CL),Pseudomonas solanacearum,21.61 µM
same,Lethal concentration (CL),[2],16.86 µM
same,Lethal concentration (CL),[3],3.79 µM
same,Lethal concentration (CL),[5],58.93 µM
same,Lethal concentration (CL),[4],16.86 µM
FLFSLIPSAISGLINAFK-NH2 [MeuFSPL-2],residual activity after incubation in mouse serum,"Serum stability; 4 h, 0.72 nmol/well",entirely lost
same,Lethal concentration (CL),Candida albicans 4277,7.06 µM
same,Lethal concentration (CL),Candida albicans JX1009,11.58 µM
FLFSLIPSAISGLISAFK-NH2 [MeuFSPL-1],hemolysis,[1]; [8],61 ± 2.5%
same,hemolysis,[1]; peptide 6.25 μM,~100%
same,Lethal concentration (CL),Candida albicans 4277,6.25 µM
same,Lethal concentration (CL),Candida albicans JX1009,15.55 µM
same,Lethal concentration (CL),Aspergillus nidulans A28,14.84 µM
same,Lethal concentration (CL),Pichia pastoris X33,8.21 µM
FLFSLIPSAISGLISAFKGRRKRDLN-NH2 [MarMEL],hemolysis,[1]; [8],66 ± 1.2%
same,hemolysis,[1]; peptide 6.25 μM,~100%
same,hemolysis,[6],nearly complete hemolysis
same,Lethal concentration (CL),Candida albicans 4277,7.04 µM
same,Lethal concentration (CL),Escherichia coli JM109,5.55 µM
same,Lethal concentration (CL),Candida albicans JX1009,6.49 µM
same,Lethal concentration (CL),Candida albicans JX1195,5.65 µM
same,Lethal concentration (CL),Escherichia coli DH5α,5.48 µM
same,Lethal concentration (CL),[7],5.65 µM
same,Lethal concentration (CL),Aspergillus nidulans A28,7.14 µM
same,Lethal concentration (CL),Pichia pastoris X33,3.57 µM
